{
  "source": "patent US6544551B1",
  "about": "“Solid pharmaceutical compositions containing hexedecylphosphocholine (miltefosine) for oral administration in the treatment of leishmaniasis” (priority 1998, dated 2003)",
  "key": {"[1]": {"test_system": "visceral leishmaniasis (VL)", "assay": "Clinical study of oral miltefosine capsules in human visceral leishmaniasis: efficacy", "assay_type": "in vivo", "description": "(§1) Miltefosine (MILT, hexadecylphosphocholine, ASTA Medica), an antineoplastic alkylphospholipid, is active in experimental visceral leishmaniasis (VL). To test oral MILT in human VL, 30 male Indian patients from Bihar (age>14 years; 18 of the 30 were antimony (Sb) failures) with splenic aspirate-positive VL were treated in 6 groups of 5 patients each (Groups A-F) for 28 days with escalating doses by oral administration of capsules according to example 1: (A) 50 mg once qod (qod=[…]), (B) 50 mg BID god (BID=twice per day), and then daily using 50 mg (C) BID (100 mg/d), (D) TID (150 mg/d), (E) QID (200 mg/d), and (F) 5×per day (250 mg/d)."}, "[2]": {"test_system": "experimental visceral leishmaniasis (VL)", "conditions": "in vivo; cited from earlier work"}, "[3]": {"assay": "Clinical study of oral miltefosine capsules in human visceral leishmaniasis: tolerability and safety", "assay_type": "in vivo", "description": "as §1"}, "[4]": {"assay": "Hygroscopicity (incorporation of water molecules)", "assay_type": "physicochemical"}, "[5]": {"conditions": "Day 14 results in 30 patients, Groups A-F together, oral"}, "[6]": {"conditions": "Group A: 50 mg once qod, 28 days, oral"}, "[7]": {"conditions": "Group B: 50 mg BID qod, 28 days, oral"}, "[8]": {"conditions": "Group D: 50 mg TID (150 mg/d), 28 days, oral"}},
  "data": [
    {"smiles": "CCCCCCCCCCCCCCCCOP(=O)([O-])OCC[N+](C)(C)C", "note": "[Miltefosine, hexadecylphosphocholine]", "values": [
      {"measurement": "patients afebrile by day 7", "setting": "[1]; 30 male Indian VL patients, Groups A-F together, oral capsules according to example 1, 28 days, day 7", "value": 16, "unit": "patients"},
      {"measurement": "all 3 responses (afebrile, decreased spleen size, negative aspirate) = apparent cures, day 14", "setting": "[1]; Day 14, Groups A-F together, oral", "value": "21 of 30"},
      {"measurement": "afebrile, day 14", "setting": "[1]; [5]", "value": 25, "unit": "patients"},
      {"measurement": "decreased spleen size, day 14", "setting": "[1]; [5]", "value": 25, "unit": "patients"},
      {"measurement": "negative spleenic aspirates (apparent parasitologic cure), day 14", "setting": "[1]; [5]", "value": 28, "unit": "patients"},
      {"measurement": "apparent cures on day 28 (percent of patients)", "setting": "[1]; Day 28, 29 patients", "value": 100, "unit": "%"},
      {"measurement": "apparent cures on day 28", "setting": "[1]; Day 28, Groups A-F together, including 4 patients with less than 10 days of therapy", "value": "29 of 29"},
      {"measurement": "cure (no relapse, parasite-free bone marrow aspirate) within 6 months, Group A", "setting": "[1]; [6]", "value": "2/5"},
      {"measurement": "relapsed within 6 months, Group A", "setting": "[1]; [6]", "value": "3/5"},
      {"measurement": "cure (no relapse, parasite-free bone marrow aspirate) within 6 months, Group B", "setting": "[1]; [7]", "value": "2/5"},
      {"measurement": "relapsed within 6 months, Group B", "setting": "[1]; [7]", "value": "3/5"},
      {"measurement": "cure (no relapse, parasite-free bone marrow aspirate) within 6 months, Group C", "setting": "[1]; Group C: 50 mg BID (100 mg/d), 28 days, oral", "value": "5/5"},
      {"measurement": "cure (no relapse, parasite-free bone marrow aspirate) within 6 months, Group D", "setting": "[1]; [8]", "value": "4/5"},
      {"measurement": "relapsed within 6 months, Group D", "setting": "[1]; [8]", "value": "1/5"},
      {"measurement": "cure (no relapse, parasite-free bone marrow aspirate) within 6 months, Group E", "setting": "[1]; Group E: 50 mg QID (200 mg/d), 28 days, oral", "value": "5/5"},
      {"measurement": "apparent cures relapsed within 6 months", "setting": "[1]; all groups, within 6 months", "value": "7 of 29"},
      {"measurement": "apparent cure (no relapse, parasite-free bone marrow aspirate) within 6 months", "setting": "[1]; all groups, within 6 months, 1 patient still in follow up", "value": "21 of 26"},
      {"measurement": "patients with definite cure who had failed prior therapy with antimony", "setting": "[1]; of the first 21 patients with definite cure", "value": 14, "unit": "patients"},
      {"measurement": "activity in experimental visceral leishmaniasis", "setting": "[2]", "value": "active"},
      {"measurement": "patients died", "setting": "[3]; Group F (250 mg/d), died on day 21, drug stopped on day 19, severe vomiting and diarrhea, dehydration, renal failure", "value": 1, "unit": "patient"},
      {"measurement": "hematologic toxicity", "setting": "[3]; human, in vivo", "value": "no hematologic toxicity"},
      {"measurement": "mild vomiting or diarrhea lasting 3-7 days", "setting": "[3]; human, in vivo", "value": "most patients"},
      {"measurement": "patients removed because of vomiting, Group F", "setting": "[3]; male, human, in vivo, 28 days", "value": 3},
      {"measurement": "maximum tolerated daily dose", "setting": "[3]; oral, human VL patients, 28 days", "value": 200, "unit": "mg/day"},
      {"measurement": "increase in weight by incorporation of water molecules", "setting": "[4]", "value": "up to 30%"}
    ]}
  ]
}
